Data published in ChEMBL document CHEMBL4507296 (2021).

Experiments:
[1] = target: Dual specificity mitogen-activated protein kinase kinase 4 (Homo sapiens) (UniProt P45985); details: Compound concentration 1000.0 nM
[2] = target: Serine/threonine-protein kinase SIK2 (Homo sapiens) (UniProt Q9H0K1); details: Compound concentration 1000.0 nM
[3] = test system: Tyrosine-protein kinase ABL1 (Homo sapiens), P00519 [T315I]; details: Compound concentration 1000.0 nM
[4] = target: Serine/threonine-protein kinase Sgk1 (Homo sapiens) (UniProt O00141); details: Compound concentration 1000.0 nM
[5] = target: Serine/threonine-protein kinase PLK1 (Homo sapiens) (UniProt P53350); details: Compound concentration 1000.0 nM
[6] = target: Serine/threonine-protein kinase MARK1 (Homo sapiens) (UniProt Q9P0L2); details: Compound concentration 1000.0 nM
[7] = target: Serine/threonine-protein kinase RIO1 (Homo sapiens) (UniProt Q9BRS2); details: Compound concentration 1000.0 nM
[8] = target: Ribosomal protein S6 kinase alpha-1 (Homo sapiens) (UniProt Q15418); details: Compound concentration 1000.0 nM
[9] = target: Calcium/calmodulin-dependent protein kinase type 1B (Homo sapiens) (UniProt Q6P2M8); details: Compound concentration 1000.0 nM
[10] = target: Histamine H3 receptor (Homo sapiens) (UniProt Q9Y5N1); details: Compound concentration 10.0 uM
[11] = target: Serine/threonine-protein kinase PAK 2 (Homo sapiens) (UniProt Q13177); details: Compound concentration 1000.0 nM
[12] = target: 5-hydroxytryptamine receptor 2B (Homo sapiens) (UniProt P41595); assay: Serotonin 5-HT2b (human) CEREP ligand profiling; details: Compound concentration 10.0 uM
[13] = target: Serine/threonine-protein kinase 4 (Homo sapiens) (UniProt Q13043); details: Compound concentration 1000.0 nM
[14] = target: 5-hydroxytryptamine receptor 5A (Homo sapiens) (UniProt P47898); details: Compound concentration 10.0 uM
[15] = test system: Tyrosine-protein kinase ABL1 (Homo sapiens), P00519 [F317I]; details: Compound concentration 1000.0 nM
[16] = target: MAP kinase-activated protein kinase 2 (Homo sapiens) (UniProt P49137); details: Compound concentration 1000.0 nM
[17] = target: Serine/threonine-protein kinase DCLK2 (Homo sapiens) (UniProt Q8N568); details: Compound concentration 1000.0 nM
[18] = target: Sodium-dependent noradrenaline transporter (Homo sapiens) (UniProt P23975); details: Compound concentration 10.0 uM
[19] = target: Serine/threonine-protein kinase PLK4 (Homo sapiens) (UniProt O00444); details: Compound concentration 1000.0 nM
[20] = target: Cyclin-dependent kinase 2 (Homo sapiens) (UniProt P24941); details: Compound concentration 1000.0 nM
[21] = target: Serine/threonine-protein kinase TAO2 (Homo sapiens) (UniProt Q9UL54); details: Compound concentration 1000.0 nM
[22] = target: Protein-tyrosine kinase 6 (Homo sapiens) (UniProt Q13882); details: Compound concentration 1000.0 nM
[23] = target: Protein kinase C delta type (Homo sapiens) (UniProt Q05655); details: Compound concentration 1000.0 nM
[24] = target: cAMP-dependent protein kinase catalytic subunit alpha (Homo sapiens) (UniProt P17612); details: Compound concentration 1000.0 nM
[25] = target: Gastrin/cholecystokinin type B receptor (Homo sapiens) (UniProt P32239); assay: CCK2 (human) CEREP ligand profiling; details: Compound concentration 10.0 uM
[26] = test system: Receptor-type tyrosine-protein kinase FLT3 (Homo sapiens), P36888 [D835Y]; details: Compound concentration 1000.0 nM
[27] = target: Activin receptor type-2A (Homo sapiens) (UniProt P27037); details: Compound concentration 1000.0 nM
[28] = target: Serine/threonine-protein kinase WNK3 (Homo sapiens) (UniProt Q9BYP7); details: Compound concentration 1000.0 nM
[29] = target: Muscarinic acetylcholine receptor M2 (Homo sapiens) (UniProt P08172); details: Compound concentration 10.0 uM
[30] = target: Serine/threonine-protein kinase Chk1 (Homo sapiens) (UniProt O14757); details: Compound concentration 1000.0 nM
[31] = target: MTNR1B (Cricetulus griseus) (UniProt G3H6N9); assay: Melatonin 2 (hamster) CEREP ligand profiling; details: Compound concentration 10.0 uM
[32] = target: Homeodomain-interacting protein kinase 2 (Homo sapiens) (UniProt Q9H2X6); details: Compound concentration 1000.0 nM
[33] = target: Serine/threonine-protein kinase RIO3 (Homo sapiens) (UniProt O14730); details: Compound concentration 1000.0 nM
[34] = target: Calcium/calmodulin-dependent protein kinase type II subunit beta (Homo sapiens) (UniProt Q13554); details: Compound concentration 1000.0 nM
[35] = target: Receptor-interacting serine/threonine-protein kinase 4 (Homo sapiens) (UniProt P57078); details: Compound concentration 1000.0 nM
[36] = target: Serine/threonine-protein kinase MRCK gamma (Homo sapiens) (UniProt Q6DT37); details: Compound concentration 1000.0 nM
[37] = target: Mitogen-activated protein kinase kinase kinase kinase 2 (Homo sapiens) (UniProt Q12851); details: Compound concentration 1000.0 nM
[38] = target: Wee1-like protein kinase 2 (Homo sapiens) (UniProt P0C1S8); details: Compound concentration 1000.0 nM
[39] = target: Mitogen-activated protein kinase 11 (Homo sapiens) (UniProt Q15759); details: Compound concentration 1000.0 nM
[40] = target: Proto-oncogene tyrosine-protein kinase receptor Ret (Homo sapiens) (UniProt P07949); details: Compound concentration 1000.0 nM
[41] = test system: Receptor-type tyrosine-protein kinase FLT3 (Homo sapiens), P36888 [N841I]; details: Compound concentration 1000.0 nM
[42] = target: Serine/threonine-protein kinase ULK2 (Homo sapiens) (UniProt Q8IYT8); details: Compound concentration 1000.0 nM
[43] = target: Serine/threonine-protein kinase PAK 4 (Homo sapiens) (UniProt O96013); details: Compound concentration 1000.0 nM
[44] = target: TGF-beta receptor type-1 (Homo sapiens) (UniProt P36897); details: Compound concentration 1000.0 nM
[45] = target: Ephrin type-A receptor 2 (Homo sapiens) (UniProt P29317); details: Compound concentration 1000.0 nM

Chain of Serine/threonine-protein kinase ULK2 (Homo sapiens) (Q8IYT8 whole entry): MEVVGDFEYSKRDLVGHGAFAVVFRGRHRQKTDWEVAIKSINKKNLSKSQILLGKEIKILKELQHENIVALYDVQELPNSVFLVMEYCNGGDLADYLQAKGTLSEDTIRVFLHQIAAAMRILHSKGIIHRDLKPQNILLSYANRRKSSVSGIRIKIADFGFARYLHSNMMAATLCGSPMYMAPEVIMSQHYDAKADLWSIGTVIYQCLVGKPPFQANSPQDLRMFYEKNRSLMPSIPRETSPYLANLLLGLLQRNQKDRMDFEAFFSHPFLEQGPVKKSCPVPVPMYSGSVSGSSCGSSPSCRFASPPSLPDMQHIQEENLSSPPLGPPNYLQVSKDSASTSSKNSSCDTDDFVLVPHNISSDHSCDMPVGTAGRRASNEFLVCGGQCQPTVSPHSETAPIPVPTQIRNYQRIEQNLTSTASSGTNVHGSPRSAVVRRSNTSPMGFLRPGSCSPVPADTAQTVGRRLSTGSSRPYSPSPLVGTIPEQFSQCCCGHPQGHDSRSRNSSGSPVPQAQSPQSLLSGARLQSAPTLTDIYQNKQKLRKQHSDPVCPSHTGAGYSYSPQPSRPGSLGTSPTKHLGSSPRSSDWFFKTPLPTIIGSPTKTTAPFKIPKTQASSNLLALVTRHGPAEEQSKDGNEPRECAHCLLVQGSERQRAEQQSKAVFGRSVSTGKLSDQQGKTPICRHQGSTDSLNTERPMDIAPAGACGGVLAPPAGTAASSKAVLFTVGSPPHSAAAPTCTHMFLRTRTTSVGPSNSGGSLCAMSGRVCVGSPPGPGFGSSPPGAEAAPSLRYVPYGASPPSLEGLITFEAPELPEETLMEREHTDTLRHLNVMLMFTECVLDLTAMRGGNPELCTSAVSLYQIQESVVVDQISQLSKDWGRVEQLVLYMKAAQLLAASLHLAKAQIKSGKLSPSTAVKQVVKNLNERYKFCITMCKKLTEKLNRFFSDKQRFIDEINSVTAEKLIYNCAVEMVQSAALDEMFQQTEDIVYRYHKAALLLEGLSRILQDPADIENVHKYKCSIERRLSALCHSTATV
Chain of Ribosomal protein S6 kinase alpha-1 (Homo sapiens) (Q15418 whole entry): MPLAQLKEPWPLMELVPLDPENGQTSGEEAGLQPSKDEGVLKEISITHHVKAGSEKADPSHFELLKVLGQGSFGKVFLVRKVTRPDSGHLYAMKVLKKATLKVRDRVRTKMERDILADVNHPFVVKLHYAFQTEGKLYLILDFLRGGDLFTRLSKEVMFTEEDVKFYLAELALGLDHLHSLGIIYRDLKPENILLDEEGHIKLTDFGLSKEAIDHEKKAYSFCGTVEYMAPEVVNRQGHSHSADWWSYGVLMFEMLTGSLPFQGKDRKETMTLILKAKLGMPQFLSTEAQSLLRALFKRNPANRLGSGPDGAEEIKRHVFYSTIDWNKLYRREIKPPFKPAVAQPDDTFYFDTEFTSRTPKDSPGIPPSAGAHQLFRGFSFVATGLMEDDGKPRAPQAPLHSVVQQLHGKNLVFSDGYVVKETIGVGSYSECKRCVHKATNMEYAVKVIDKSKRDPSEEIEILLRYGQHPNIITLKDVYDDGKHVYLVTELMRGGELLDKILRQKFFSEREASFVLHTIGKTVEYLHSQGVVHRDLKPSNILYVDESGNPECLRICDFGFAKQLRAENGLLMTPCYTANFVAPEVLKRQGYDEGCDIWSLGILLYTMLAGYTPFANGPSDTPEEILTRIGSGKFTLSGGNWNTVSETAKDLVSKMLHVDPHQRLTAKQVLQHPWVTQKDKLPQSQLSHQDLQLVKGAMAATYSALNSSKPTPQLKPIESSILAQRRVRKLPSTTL
Chain of Mitogen-activated protein kinase kinase kinase kinase 2 (Homo sapiens) (Q12851 whole entry): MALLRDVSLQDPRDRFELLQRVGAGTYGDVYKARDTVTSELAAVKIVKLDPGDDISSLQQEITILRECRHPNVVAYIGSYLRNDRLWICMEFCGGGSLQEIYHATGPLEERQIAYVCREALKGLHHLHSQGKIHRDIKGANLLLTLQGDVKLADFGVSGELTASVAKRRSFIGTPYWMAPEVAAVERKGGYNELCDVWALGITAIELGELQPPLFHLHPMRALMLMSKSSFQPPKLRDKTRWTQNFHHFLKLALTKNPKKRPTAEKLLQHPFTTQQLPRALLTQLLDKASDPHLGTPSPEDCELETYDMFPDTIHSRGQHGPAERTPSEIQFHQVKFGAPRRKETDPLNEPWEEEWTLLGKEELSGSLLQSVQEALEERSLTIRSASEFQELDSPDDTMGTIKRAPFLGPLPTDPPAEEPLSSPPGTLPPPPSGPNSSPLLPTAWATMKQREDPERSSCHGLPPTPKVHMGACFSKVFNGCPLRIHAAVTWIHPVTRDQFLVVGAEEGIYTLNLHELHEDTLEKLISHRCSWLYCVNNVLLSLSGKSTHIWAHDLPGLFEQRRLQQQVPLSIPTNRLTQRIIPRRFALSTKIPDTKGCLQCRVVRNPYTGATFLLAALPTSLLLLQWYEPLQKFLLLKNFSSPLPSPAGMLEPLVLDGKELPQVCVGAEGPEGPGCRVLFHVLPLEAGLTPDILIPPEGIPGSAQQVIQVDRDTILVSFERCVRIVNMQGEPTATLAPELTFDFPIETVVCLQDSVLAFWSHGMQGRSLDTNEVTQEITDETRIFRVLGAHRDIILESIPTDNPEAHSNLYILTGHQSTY
Chain of Protein-tyrosine kinase 6 (Homo sapiens) (Q13882 whole entry, looked up): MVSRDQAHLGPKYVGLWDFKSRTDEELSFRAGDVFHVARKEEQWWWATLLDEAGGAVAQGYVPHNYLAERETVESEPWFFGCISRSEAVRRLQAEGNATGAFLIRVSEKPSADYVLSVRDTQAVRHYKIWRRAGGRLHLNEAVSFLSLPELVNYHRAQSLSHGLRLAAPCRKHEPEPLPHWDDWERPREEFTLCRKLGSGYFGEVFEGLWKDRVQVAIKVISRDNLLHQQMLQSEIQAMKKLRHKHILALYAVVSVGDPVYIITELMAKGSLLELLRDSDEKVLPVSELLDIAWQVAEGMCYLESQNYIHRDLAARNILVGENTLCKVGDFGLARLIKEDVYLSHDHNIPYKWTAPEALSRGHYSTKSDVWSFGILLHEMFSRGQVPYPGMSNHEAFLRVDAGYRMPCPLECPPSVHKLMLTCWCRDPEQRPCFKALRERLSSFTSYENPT
Chain of Serine/threonine-protein kinase WNK3 (Homo sapiens) (Q9BYP7 whole entry): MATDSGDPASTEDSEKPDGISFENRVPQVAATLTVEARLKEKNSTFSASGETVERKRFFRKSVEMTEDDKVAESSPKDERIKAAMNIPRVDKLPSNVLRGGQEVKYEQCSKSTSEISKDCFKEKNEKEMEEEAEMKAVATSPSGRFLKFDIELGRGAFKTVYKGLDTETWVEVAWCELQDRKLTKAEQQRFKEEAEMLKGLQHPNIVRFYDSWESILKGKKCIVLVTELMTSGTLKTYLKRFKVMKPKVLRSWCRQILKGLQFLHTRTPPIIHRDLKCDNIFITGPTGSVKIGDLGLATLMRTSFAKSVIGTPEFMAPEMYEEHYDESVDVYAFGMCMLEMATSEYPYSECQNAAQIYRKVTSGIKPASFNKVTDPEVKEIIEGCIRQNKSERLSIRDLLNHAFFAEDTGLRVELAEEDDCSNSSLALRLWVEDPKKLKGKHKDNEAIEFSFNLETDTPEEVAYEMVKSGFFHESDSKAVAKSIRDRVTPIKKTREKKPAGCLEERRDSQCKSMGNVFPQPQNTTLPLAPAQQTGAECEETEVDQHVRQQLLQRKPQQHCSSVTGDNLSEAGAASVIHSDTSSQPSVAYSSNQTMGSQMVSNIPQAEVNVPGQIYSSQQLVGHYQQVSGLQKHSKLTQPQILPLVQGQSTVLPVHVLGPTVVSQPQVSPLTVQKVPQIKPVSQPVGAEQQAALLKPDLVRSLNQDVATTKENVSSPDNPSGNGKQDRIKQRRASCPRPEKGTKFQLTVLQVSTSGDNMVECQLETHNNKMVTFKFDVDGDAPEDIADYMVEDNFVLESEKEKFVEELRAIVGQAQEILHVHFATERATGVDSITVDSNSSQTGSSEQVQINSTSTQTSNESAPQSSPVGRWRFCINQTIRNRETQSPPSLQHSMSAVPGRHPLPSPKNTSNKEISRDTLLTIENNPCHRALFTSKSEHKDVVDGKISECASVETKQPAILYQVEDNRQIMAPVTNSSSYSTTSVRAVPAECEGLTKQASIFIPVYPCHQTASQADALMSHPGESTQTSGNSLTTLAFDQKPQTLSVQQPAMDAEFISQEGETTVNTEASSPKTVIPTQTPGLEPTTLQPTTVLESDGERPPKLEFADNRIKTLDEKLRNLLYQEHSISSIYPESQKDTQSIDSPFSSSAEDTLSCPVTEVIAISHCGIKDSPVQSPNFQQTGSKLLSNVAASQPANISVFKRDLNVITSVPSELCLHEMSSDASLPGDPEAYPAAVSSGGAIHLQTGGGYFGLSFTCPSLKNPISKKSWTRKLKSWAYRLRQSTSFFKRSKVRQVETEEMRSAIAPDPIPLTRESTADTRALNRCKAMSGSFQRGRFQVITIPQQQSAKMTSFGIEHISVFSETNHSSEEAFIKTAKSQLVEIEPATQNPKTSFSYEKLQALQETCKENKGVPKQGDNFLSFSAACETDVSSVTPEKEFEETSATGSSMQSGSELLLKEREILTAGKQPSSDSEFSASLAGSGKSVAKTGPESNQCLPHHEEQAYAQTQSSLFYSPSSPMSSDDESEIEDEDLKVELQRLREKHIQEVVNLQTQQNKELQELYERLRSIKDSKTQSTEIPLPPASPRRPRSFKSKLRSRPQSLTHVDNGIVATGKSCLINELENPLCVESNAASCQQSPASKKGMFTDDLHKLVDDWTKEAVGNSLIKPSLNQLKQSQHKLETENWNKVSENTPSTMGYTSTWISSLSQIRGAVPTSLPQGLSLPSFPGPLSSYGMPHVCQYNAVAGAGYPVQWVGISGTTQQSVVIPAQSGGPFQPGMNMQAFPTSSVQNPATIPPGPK

C[C@H](c1ccc(F)cc1)N(Cc1cccc(C(=O)O)c1)C(=O)c1cnc2ccccc2c1 [PF-05105679]
inactive: residual activity [1] 100% | residual activity [2] 96% | residual activity [3] 85% | residual activity [4] 81% | residual activity [5] 79% | residual activity [6] 100% | residual activity [7] 100% | residual activity [8] 100% | residual activity [9] 100% | inhibition [10] 16.6% | residual activity [11] 100% | inhibition [12] 26% | residual activity [13] 92% | inhibition [14] -1.89% | residual activity [15] 100% | residual activity [16] 85% | residual activity [17] 100% | inhibition [18] 2.04% | residual activity [19] 100% | residual activity [20] 100% | residual activity [21] 100% | residual activity [22] 83% | residual activity [23] 100% | residual activity [24] 100% | inhibition [25] 35% | residual activity [26] 100% | residual activity [27] 100% | residual activity [28] 87% | inhibition [29] 12.6% | residual activity [30] 100% | inhibition [31] 32% | residual activity [32] 100% | residual activity [33] 86% | residual activity [34] 100% | residual activity [35] 100% | residual activity [36] 100% | residual activity [37] 100% | residual activity [38] 100% | residual activity [39] 100% | residual activity [40] 100% | residual activity [41] 62% | residual activity [42] 81% | residual activity [43] 100% | residual activity [44] 96% | residual activity [45] 100%
